Measured values taken from patent US20070213378A1, “Compounds for modulating cell proliferation, compositions and methods related thereto” (LymphoSign Inc., priority 2006, published 2007).

Legend:
Type in all cases: cell-based
MOLM-13 = test: Cell proliferation assay (WST-1 and/or Alamar Blue), MOLM-13; settings: MOLM-13, human acute myeloid leukemia; 72 hours incubation
Description: (§1) Compounds of the present invention were assayed for activity using a WST-1 cell proliferation assay and/or an Alamar Blue-based assay.
(§2) The WST-1 cell proliferation assay employed was obtained from Chemicon International, Inc. of Temecula, Calif. Further information on assay materials and procedure is provided at www.chemicon.com. The WST-1 cell proliferation assay relies on the formation of a formazan from a tetrazolium salt by cellular enzymes, whereby the amount of the obtained formazan dye as an indicator of viability is directly proportional to the number of metabolically active cells in culture.
(§3) Following 72 hours incubation of the respective cells in 50 μL/well with test compound, 10 μL of WST-1 reagent was added to each well and its contents briefly mixed. The cells were then incubated for 2 hours before absorbance of the dye was measured at 450 nm using a commercial UV/VIS microplate reader (Molecular Devices).
(§4) The Alamar Blue assay employed the CellTiter-Blue™ Cell Viability Assay from Promega Corporation of Madison, Wis. Further information on assay materials and procedure is provided at www.promega.com. The Alamar Blue-based CellTiter-Blue assay indicates cell viability by measuring the ability of cells in culture to reduce resazurin to resorufin, whereby the intensity of the fluorescence signal is directly proportional to the number of live cells. […]

786-0 = test: Cell proliferation assay (WST-1 and/or Alamar Blue), 786-0; settings: Homo sapiens; 786-0, renal cell adenocarcinoma; 72 hours incubation
Description: as §1, §2, §3, §4

SKM-1 = test: Cell proliferation assay (WST-1 and/or Alamar Blue), SKM-1; settings: SKM-1, human acute myeloid leukemia; 72 hours incubation
Description: as §1, §2, §3, §4

DU145 = test: Cell proliferation assay (WST-1 and/or Alamar Blue), DU145; settings: Homo sapiens, DU-145; DU145, prostate carcinoma; 72 hours incubation
Description: as §1, §2, §3, §4

NCI-H460 = test: Cell proliferation assay (WST-1 and/or Alamar Blue), NCI-H460; settings: Homo sapiens; NCI-H460, large cell lung carcinoma; 72 hours incubation
Description: as §1, §2, §3, §4

OVCAR-5 = test: Cell proliferation assay (WST-1 and/or Alamar Blue), OVCAR-5; settings: Homo sapiens; OVCAR-5, ovarian carcinoma; 72 hours incubation
Description: as §1, §2, §3, §4

HCT-116 = test: Cell proliferation assay (WST-1 and/or Alamar Blue), HCT-116; settings: Homo sapiens; HCT-116, colorectal carcinoma; 72 hours incubation
Description: as §1, §2, §3, §4

MiaPACA-2 = test: Cell proliferation assay (WST-1 and/or Alamar Blue), MiaPACA-2; settings: Homo sapiens, MIA PaCa-2; MiaPACA-2, pancreas carcinoma; 72 hours incubation
Description: as §1, §2, §3, §4

SKOV-3 = test: Cell proliferation assay (WST-1 and/or Alamar Blue), SKOV-3; settings: Homo sapiens, SK-OV-3; SKOV-3, ovarian adenocarcinoma; 72 hours incubation
Description: as §1, §2, §3, §4

MDA-MB453 = test: Cell proliferation assay (WST-1 and/or Alamar Blue), MDA-MB453; settings: Homo sapiens, MDA-MB-453; MDA-MB453, metastatic breast carcinoma; 72 hours incubation
Description: as §1, §2, §3, §4

PANC-1 = test: Cell proliferation assay (WST-1 and/or Alamar Blue), PANC-1; settings: Homo sapiens; PANC-1, pancreas duct epithelial carcinoma; 72 hours incubation
Description: as §1, §2, §3, §4

KASUMI-1 = test: Cell proliferation assay (WST-1 and/or Alamar Blue), KASUMI-1; settings: KASUMI-1, human acute myeloid leukemia; 72 hours incubation
Description: as §1, §2, §3, §4

SUP-B15 = test: Cell proliferation assay (WST-1 and/or Alamar Blue), SUP-B15; settings: SUP-B15, human B-cell derived acute lymphoblastic leukemia; 72 hours incubation
Description: as §1, §2, §3, §4

RS4-11 = test: Cell proliferation assay (WST-1 and/or Alamar Blue), RS4-11; settings: RS4-11, human B-cell derived acute lymphoblastic leukemia; 72 hours incubation
Description: as §1, §2, §3, §4

MCF-7 = test: Cell proliferation assay (WST-1 and/or Alamar Blue), MCF-7; settings: Homo sapiens, MCF7; MCF-7, epithelial mammary adenocarcinoma; 72 hours incubation
Description: as §1, §2, §3, §4

OCI-AML2 = test: Cell proliferation assay (WST-1 and/or Alamar Blue), OCI-AML2; settings: OCI-AML2, human acute myeloid leukemia; 72 hours incubation
Description: as §1, §2, §3, §4

ACHN = test: Cell proliferation assay (WST-1 and/or Alamar Blue), ACHN; settings: Homo sapiens, renal cell adenocarcinoma, 72 hours incubation
Description: as §1, §2, §3, §4

SK-MEL-5 = test: Cell proliferation assay (WST-1 and/or Alamar Blue), SK-MEL-5; settings: Homo sapiens; SK-MEL-5, malignant melanoma; 72 hours incubation
Description: as §1, §2, §3, §4

MV4-11 = test: Cell proliferation assay (WST-1 and/or Alamar Blue), MV4-11; settings: MV4-11, human acute myelo-monocytic leukemia; 72 hours incubation
Description: as §1, §2, §3, §4

CCRF-CEM = test: Cell proliferation assay (WST-1 and/or Alamar Blue), CCRF-CEM; settings: human T-cell derived lymphoblastic leukemia, 72 hours incubation
Description: as §1, §2, §3, §4

DAOY = test: Cell proliferation assay (WST-1 and/or Alamar Blue), DAOY; settings: Homo sapiens, cerebellar medulloblastoma, 72 hours incubation
Description: as §1, §2, §3, §4

C1 = test: Cell proliferation assay (WST-1 and/or Alamar Blue), C1; settings: C1, human B-cell derived acute lymphoblastic leukemia; 72 hours incubation
Description: as §1, §2, §3, §4

PC3 = test: Cell proliferation assay (WST-1 and/or Alamar Blue), PC3; settings: Homo sapiens, PC-3; PC3, prostate adenocarcinoma; 72 hours incubation
Description: as §1, §2, §3, §4

PEER = test: Cell proliferation assay (WST-1 and/or Alamar Blue), PEER; settings: human T-cell derived lymphoblastic leukemia, 72 hours incubation
Description: as §1, §2, §3, §4

A549 = test: Cell proliferation assay (WST-1 and/or Alamar Blue), A549; settings: Homo sapiens; A549, lung carcinoma; 72 hours incubation
Description: as §1, §2, §3, §4

MOLT-4 = test: Cell proliferation assay (WST-1 and/or Alamar Blue), MOLT-4; settings: MOLT-4, human T-cell derived lymphoblastic leukemia; 72 hours incubation
Description: as §1, §2, §3, §4

CC(C)C(=O)Nc1cccc(C(=O)Nc2nnc(CCc3ccccc3)s2)c1 [Compound A]
IC50 (MOLM-13): 0.83 µM
IC50 (786-0): 4.34 µM
IC50 (SKM-1): 0.6 µM
IC50 (DU145): 6.14 µM
IC50 (NCI-H460): 2.32 µM
IC50 (OVCAR-5): 6.65 µM
IC50 (HCT-116): 17.3 µM
IC50 (MiaPACA-2): 3.36 µM
IC50 (SKOV-3): 3.5 µM
IC50 (MDA-MB453): 1.71 µM
IC50 (PANC-1): > 20 µM
IC50 (KASUMI-1): ≥ 20 µM
IC50 (SUP-B15): 4.82 µM
IC50 (RS4-11): 0.13 µM
IC50 (MCF-7): > 20 µM
IC50 (OCI-AML2): 0.35 µM
IC50 (ACHN): 5 µM
IC50 (SK-MEL-5): 2.39 µM
IC50 (MV4-11): 0.93 µM
IC50 (CCRF-CEM): 0.97 µM
IC50 (DAOY): 2.7 µM
IC50 (C1): 0.57 µM
IC50 (PC3): 2.35 µM
IC50 (PEER): > 20 µM
IC50 (A549): 19.1 µM
IC50 (MOLT-4): 0.34 µM
